Measurements from PubChem BioAssay (NCI).
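Assay format: 96-well plates, 48-hour exposure. GI50: concentration for 50% inhibition of growth. TGI is the concentration that stops growth completely.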

Assays:
Test in all cases: NCI anticancer screen, dose series, 48 h
IGROV1 ovarian = test system: IGROV1 ovarian
U251 CNS = test system: U251 CNS
HOP-92 NSCLC = test system: HOP-92 NSCLC
HCT-116 colon = test system: HCT-116 colon
MOLT-4 leukemia = test system: MOLT-4 leukemia
A498 renal = test system: A498 renal
DU-145 prostate = test system: DU-145 prostate
MDA-MB-231 breast = test system: MDA-MB-231 breast
KM12 colon = test system: KM12 colon
UACC-62 melanoma = test system: UACC-62 melanoma
NCI-H23 lung = test system: NCI-H23 lung
COLO 205 colon = test system: COLO 205 colon
786-0 renal = test system: 786-0 renal
UO-31 renal = test system: UO-31 renal
A549 NSCLC = test system: A549 NSCLC
OVCAR-3 ovarian = test system: OVCAR-3 ovarian
T-47D breast = test system: T-47D breast
OVCAR-5 ovarian = test system: OVCAR-5 ovarian
M14 melanoma = test system: M14 melanoma
LOX IMVI melanoma = test system: LOX IMVI melanoma
HCT-15 colon = test system: HCT-15 colon
SN12C renal = test system: SN12C renal
MALME-3M melanoma = test system: MALME-3M melanoma
SF-295 CNS = test system: SF-295 CNS
SK-OV-3 ovarian = test system: SK-OV-3 ovarian
SR leukemia = test system: SR leukemia
SNB-19 CNS = test system: SNB-19 CNS
SF-539 CNS = test system: SF-539 CNS
SF-268 CNS = test system: SF-268 CNS
OVCAR-4 ovarian = test system: OVCAR-4 ovarian
OVCAR-8 ovarian = test system: OVCAR-8 ovarian
HCC-2998 colon = test system: HCC-2998 colon
SW-620 colon = test system: SW-620 colon
CAKI-1 renal = test system: CAKI-1 renal
RPMI-8226 leukemia = test system: RPMI-8226 leukemia
BT-549 breast = test system: BT-549 breast
MCF7 breast = test system: MCF7 breast
K-562 leukemia = test system: K-562 leukemia
MDA-MB-435 = test system: MDA-MB-435
NCI-H226 lung = test system: NCI-H226 lung
HS 578T breast = test system: HS 578T breast
ACHN renal = test system: ACHN renal
SK-MEL-28 melanoma = test system: SK-MEL-28 melanoma
CCRF-CEM leukemia = test system: CCRF-CEM leukemia
UACC-257 melanoma = test system: UACC-257 melanoma
PC-3 prostate = test system: PC-3 prostate
NCI-H522 lung = test system: NCI-H522 lung
SK-MEL-2 melanoma = test system: SK-MEL-2 melanoma
HL-60(TB) leukemia = test system: HL-60(TB) leukemia
NCI-H460 lung = test system: NCI-H460 lung
NCI/ADR-RES ovarian = test system: NCI/ADR-RES ovarian
RXF 393 renal = test system: RXF 393 renal
HT29 colon = test system: HT29 colon
TK-10 renal = test system: TK-10 renal
SNB-75 CNS = test system: SNB-75 CNS
HOP-62 NSCLC = test system: HOP-62 NSCLC
EKVX NSCLC = test system: EKVX NSCLC
SK-MEL-5 melanoma = test system: SK-MEL-5 melanoma

With COc1ccccc1-[n+]1cc(-c2ccc(-c3ccccc3)cc2)n2c1CCCCC2 the GI50 (IGROV1 ovarian) was 617 nM, the TGI (IGROV1 ovarian) was 13500 nM and the GI50 (U251 CNS) was 383 nM. The TGI (U251 CNS) was 15700 nM, the GI50 (HOP-92 NSCLC) was 184 nM and the TGI (HOP-92 NSCLC) was 1970 nM. It also gave a GI50 (HCT-116 colon) of 231 nM, a TGI (HCT-116 colon) of 11900 nM and a GI50 (MOLT-4 leukemia) of 292 nM. The TGI (MOLT-4 leukemia) was 3970 nM, the GI50 (A498 renal) was 615 nM and the TGI (A498 renal) was 7500 nM. It also gave a GI50 (DU-145 prostate) of 444 nM, a TGI (DU-145 prostate) of 14800 nM and a GI50 (MDA-MB-231 breast) of 276 nM. It also gave a TGI (MDA-MB-231 breast) of 2390 nM, a GI50 (KM12 colon) of 288 nM and a TGI (KM12 colon) of 3170 nM. For the same compound, the GI50 (UACC-62 melanoma) was 159 nM, the TGI (UACC-62 melanoma) was 1800 nM and the GI50 (NCI-H23 lung) was 101 nM. The TGI (NCI-H23 lung) was 10100 nM, the GI50 (COLO 205 colon) was 236 nM and the TGI (COLO 205 colon) was 2620 nM. For the same compound, the GI50 (786-0 renal) was 1310 nM, the TGI (786-0 renal) was 11500 nM and the GI50 (UO-31 renal) was 2190 nM. It also gave a TGI (UO-31 renal) of 11100 nM, a GI50 (A549 NSCLC) of 510 nM and a TGI (A549 NSCLC) of 16700 nM. For the same compound, the GI50 (OVCAR-3 ovarian) was 233 nM, the TGI (OVCAR-3 ovarian) was 12400 nM and the GI50 (T-47D breast) was 77.4 nM. For the same compound, the TGI (T-47D breast) was 11900 nM, the GI50 (OVCAR-5 ovarian) was 668 nM and the TGI (OVCAR-5 ovarian) was 16600 nM. For the same compound, the GI50 (M14 melanoma) was 443 nM, the TGI (M14 melanoma) was 10100 nM and the GI50 (LOX IMVI melanoma) was 322 nM. The TGI (LOX IMVI melanoma) was 8100 nM, the GI50 (HCT-15 colon) was 4350 nM and the TGI (HCT-15 colon) was 20200 nM. For the same compound, the GI50 (SN12C renal) was 288 nM, the TGI (SN12C renal) was 10500 nM and the GI50 (MALME-3M melanoma) was 158 nM. The TGI (MALME-3M melanoma) was 869 nM, the GI50 (SF-295 CNS) was 359 nM and the TGI (SF-295 CNS) was 4030 nM. The GI50 (SK-OV-3 ovarian) was 368 nM, the TGI (SK-OV-3 ovarian) was 5820 nM and the GI50 (SR leukemia) was 304 nM. The TGI (SR leukemia) was 24100 nM, the GI50 (SNB-19 CNS) was 261 nM and the TGI (SNB-19 CNS) was 12100 nM. It also gave a GI50 (SF-539 CNS) of 348 nM, a TGI (SF-539 CNS) of 13200 nM and a GI50 (SF-268 CNS) of 423 nM. For the same compound, the TGI (SF-268 CNS) was 14800 nM, the GI50 (OVCAR-4 ovarian) was 116 nM and the TGI (OVCAR-4 ovarian) was 12500 nM. It also gave a GI50 (OVCAR-8 ovarian) of 528 nM, a TGI (OVCAR-8 ovarian) of 15900 nM and a GI50 (HCC-2998 colon) of 318 nM. For the same compound, the TGI (HCC-2998 colon) was 12600 nM, the GI50 (SW-620 colon) was 587 nM and the TGI (SW-620 colon) was 12700 nM. The GI50 (CAKI-1 renal) was 11500 nM, the TGI (CAKI-1 renal) was 33400 nM and the TGI (RPMI-8226 leukemia) was 1530 nM. It also gave a GI50 (BT-549 breast) of 150 nM, a TGI (BT-549 breast) of 1250 nM and a GI50 (MCF7 breast) of 229 nM. It also gave a TGI (MCF7 breast) of 11200 nM, a GI50 (K-562 leukemia) of 173 nM and a TGI (K-562 leukemia) of 13100 nM. The GI50 (MDA-MB-435) was 270 nM, the TGI (MDA-MB-435) was 3600 nM and the GI50 (NCI-H226 lung) was 773 nM. For the same compound, the TGI (NCI-H226 lung) was 13400 nM, the GI50 (HS 578T breast) was 1070 nM and the TGI (HS 578T breast) was 31800 nM. The GI50 (ACHN renal) was 2450 nM, the TGI (ACHN renal) was 11300 nM and the GI50 (SK-MEL-28 melanoma) was 384 nM. It also gave a TGI (SK-MEL-28 melanoma) of 11200 nM, a GI50 (CCRF-CEM leukemia) of 224 nM and a TGI (CCRF-CEM leukemia) of 23900 nM. For the same compound, the GI50 (UACC-257 melanoma) was 318 nM, the TGI (UACC-257 melanoma) was 12900 nM and the GI50 (PC-3 prostate) was 228 nM. For the same compound, the TGI (PC-3 prostate) was 8950 nM, the GI50 (NCI-H522 lung) was 169 nM and the TGI (NCI-H522 lung) was 9030 nM. For the same compound, the GI50 (SK-MEL-2 melanoma) was 237 nM, the TGI (SK-MEL-2 melanoma) was 2220 nM and the GI50 (HL-60(TB) leukemia) was 42.9 nM. It also gave a TGI (HL-60(TB) leukemia) of 1010 nM, a GI50 (NCI-H460 lung) of 388 nM and a TGI (NCI-H460 lung) of 11500 nM. For the same compound, the GI50 (NCI/ADR-RES ovarian) was 19800 nM, the TGI (NCI/ADR-RES ovarian) was 60400 nM and the GI50 (RXF 393 renal) was 867 nM. The TGI (RXF 393 renal) was 9500 nM, the GI50 (HT29 colon) was 281 nM and the TGI (HT29 colon) was 10200 nM. For the same compound, the GI50 (TK-10 renal) was 638 nM, the TGI (TK-10 renal) was 13000 nM and the GI50 (SNB-75 CNS) was 325 nM. For the same compound, the TGI (SNB-75 CNS) was 13400 nM, the GI50 (HOP-62 NSCLC) was 1290 nM and the TGI (HOP-62 NSCLC) was 15400 nM. It also gave a GI50 (EKVX NSCLC) of 152 nM, a TGI (EKVX NSCLC) of 14400 nM and a GI50 (SK-MEL-5 melanoma) of 166 nM. It also gave a TGI (SK-MEL-5 melanoma) of 475 nM.
